Columns and labels:
[1] = pK study in Wistar rats, aqueous suspensions by intramuscular route; type: in vivo, male wistar rats; conditions: single IM dose, 3.6 mg equivalent risperidone base, aqueous suspension, figure-3
Procedure: A comparative evaluation of pharmacokinetic profile of Risperidone, Rispridone pamoate and Risperidone hemipamoate was carried out in male wistar rats. Aqueous suspension formulations of Risperidone base, Pamoate and hemipamoate salt containing 3.6 mg equivalent risperidone base were administered through intramuscular route. Each group (N=5) was administered a single dose. Blood samples were withdrawn at predefined time interval for measurement of Risperidone and 9-hydroxyrisperidone.

[2] = poorly soluble salt suspended in aqueous vehicle, dogs; cited from earlier work
[3] = Intrinsic dissolution rate (disc method, HPLC analysis); type: physicochemical; conditions: phosphate buffer saline, 37° C., 200 rpm; for Intrinsic dissolution rate: 50 mg disc, drug equivalent to risperidone dissolved per unit area per unit time
Procedure: The risperidone hemipamoate of example-1 has intrinsic dissolution rates much less than that compared to risperidone alone as disclosed herein below. The intrinsic dissolution rates were determined by preparing discs of sample (50 mg) and performing dissolution by mounting the sample on shaft of dissolution apparatus with help of disc adaptor. The dissolution was performed in phosphate buffer saline, at 37° C. and rotation of 200 rpm. Samples were withdrawn at regular interval and analyzed by high performance liquid chromatography. The intrinsic dissolution rate was calculated as amount of drug (equivalent to risperidone) dissolved per unit area per unit time.

Question: For Cc1nc2n(c(=O)c1CCN1CCC(c3noc4cc(F)ccc34)CC1)CCCC2 [Risperidone pamoate, reference compound], which “Absorption after IM administration” value [1] is on record?
Answer: The value was “absorbed rapidly”.

Question: What about the Plasma level course [1] of the same compound?
Answer: Its Plasma level course is “falls quickly”.

Question: And the Period of effectiveness [2]?
Answer: The Period of effectiveness was “over 2 week”.

Question: Which Intrinsic dissolution rate [3] does the source give for Cc1nc2n(c(=O)c1CCN1CCC(c3noc4cc(F)ccc34)CC1)CCCC2 [Risperidone, 3-[2-[4-(6-fluoro-1,2-benzisoxazol-3-yl)-1-piperidinyl]ethyl]-6,7,8,9-tetrahydro-2-methyl-4H-pyrido[1,2-a]pyrimidin-4-one] here?
Answer: Its Intrinsic dissolution rate is 1.89 mg/cm^2/h.

Question: For Cc1nc2n(c(=O)c1CCN1CCC(c3noc4cc(F)ccc34)CC1)CCCC2.Cc1nc2n(c(=O)c1CCN1CCC(c3noc4cc(F)ccc34)CC1)CCCC2.O=C(O)c1cc2ccccc2c(Cc2c(O)c(C(=O)O)cc3ccccc23)c1O [Risperidone hemipamoate], which “Absorption after IM administration” value [1] is on record?
Answer: Its value is “absorbed rapidly”.

Question: What about the “Exposure duration compared to risperidone pamoate” value [1] of the same compound?
Answer: The value was “remains sustained for longer duration”.

Question: And the Plasma level course [1]?
Answer: Its Plasma level course is “sustains for long duration comparatively”.

Question: And the “Intrinsic dissolution rate compared to risperidone alone” value [3]?
Answer: The value was “much less”.

Question: And the Intrinsic dissolution rate [3]?
Answer: The Intrinsic dissolution rate was 0.49 mg/cm^2/h.

— patent publication US9040695B2, “Acid addition salts of risperidone and pharmaceutical compositions thereof” (TORRENT PHARMACEUTICALS LIMITED, priority 2011, dated 2015)
